Reference: patent publication US20150141248A1, “ANTIFUNGAL COMPOSITIONS” (DSM IP ASSETS B.V., priority 2011, published 2015)

What was measured:
[1] = tested on: Botrytis cinerea; experiment: In vitro antifungal activity, 96-well microtiter plates; format: cell-based; details: in vitro 25° C., 5 days
Description: The following compositions were tested: […] Subsequently, 100 μl of a Botrytis cinerea suspension prepared in PCB medium was used to inoculated each well with 2.5×10^3 spores/ml. […] The expected antifungal activity (E in %) of the active ingredient combination was calculated according to the Colby equation (Colby, 1967): […] wherein X and Y are the observed antifungal activities (in %) of the individual active ingredients X and Y, respectively.

[2] = tested on: Fusarium proliferatum; experiment: as above; format: cell-based; details: in vitro 25° C., 3 days
Description: Subsequently, 100 μl of a Botrytis cinerea suspension prepared in PCB medium was used to inoculated each well with 2.5×10^3 spores/ml.
, the in vitro antifungal activity (%) of the individual active ingredients was assessed by calculating the reduction in mould growth observed in the presence of the active ingredient in comparison to the mould growth observed in the absence of the active ingredient. The expected antifungal activity (E in %) of the active ingredient combination was calculated according to the Colby equation (Colby, 1967): […]
The experiment was conducted as described in Example 13, except for the fact that the following compositions were tested:
Furthermore, Fusarium proliferatum was used for inoculation. The antifungal activity (in %) of the individual and combined active ingredients was determined according to the method described in Example 13.

[3] = tested on: Fusarium proliferatum; experiment: Treatment of wounded bananas inoculated with Fusarium proliferatum (mould growth); format: in vivo; details: for Number of moulded wounds/total number of 12 wounds: bananas 20° C.; for Observed antifungal activity O: bananas
Description: Four organic, unripe (green) bananas were used per treatment. The peel of each banana was wounded thrice using a cork borer according to the method described by de Lapeyre de Bellaire and Dubois (1987). Subsequently, each wound was inoculated with 15 μl of a Fusarium proliferatum suspension containing 1×10^5 of spores/ml. […] In addition, the antifungal compositions comprised 1.00% (w/w) methylhydroxyethylcellulose (MHEC), 0.40% (w/w) xanthan gum, 0.20% (w/w) anti-foaming agent, 0.30% (w/w) citric acid, 0.39% (w/w) lactic acid and 0.11% (w/w) potassium sorbate. The pH of the composition was 4.0. […] The treated, unripe bananas were incubated in a closed box in the dark at 20° C. and a relative air humidity of 95%, which was obtained in the presence of a saturated Na2HPO4 aqueous solution. During the first 20 days of incubation, a ripe (yellow) banana was included in the closed box to elevate the ethylene gas level and thus induce ripening of the treated, unripe bananas. […]
The expected antifungal activity (E in %) of the combined antifungal composition comprising both active ingredients was calculated according to the Colby equation (Colby, 1967): […]
wherein X and Y are the observed antifungal activities (in %) of the individual active ingredients X and Y, respectively. If the observed antifungal activity (O in %) of the combination exceeds the expected antifungal activity (E in %) of the combination and the synergy factor O/E is thus >1.0, the combined application of the active ingredients leads to a synergistic antifungal effect.

CCCC1COC(Cn2cncn2)(c2ccc(Cl)cc2Cl)O1 (stereo not drawn) [Propiconazole, propiconazole]
Observed antifungal activity O ([1]; natamycin 0.63 ppm, propiconazole 1.00 ppm or both): 0%
Observed antifungal activity O ([1]; natamycin 1.25 ppm, propiconazole 0.50 ppm, prothioconazole 0.13 ppm, or natamycin 1.25 ppm with either): 0%
Observed antifungal activity O ([2]; natamycin 2.5 ppm, propiconazole 7.5 ppm or both): 0%
Observed antifungal activity O ([2]; propiconazole 10.0 ppm alone or with natamycin 2.5 ppm): 0%
Number of moulded wounds/total number of 12 wounds ([3]; 50 ppm natamycin, 250 ppm propiconazole or both, Day 29): 5/12
Number of moulded wounds/total number of 12 wounds ([3]; 50 ppm natamycin, 250 ppm propiconazole or both, Day 29, listed as propiconazole): 5
Number of moulded wounds/total number of 12 wounds ([3]; 50 ppm natamycin, 250 ppm propiconazole or both, Day 32): 8/12
Number of moulded wounds/total number of 12 wounds ([3]; 50 ppm natamycin, 250 ppm propiconazole or both, Day 32, listed as propiconazole): 8
Number of moulded wounds/total number of 12 wounds ([3]; 50 ppm natamycin, 250 ppm propiconazole or both, Day 34): 10/12
Number of moulded wounds/total number of 12 wounds ([3]; 50 ppm natamycin, 250 ppm propiconazole or both, Day 34, listed as propiconazole): 10
Number of moulded wounds/total number of 12 wounds ([3]; 50 ppm natamycin, 250 ppm propiconazole or both, Day 36): 12/12
Number of moulded wounds/total number of 12 wounds ([3]; 50 ppm natamycin, 250 ppm propiconazole or both, Day 36, listed as propiconazole): 12
Number of moulded wounds/total number of 12 wounds ([3]; 50 ppm natamycin, 250 ppm propiconazole or both, Day 39): 12/12
Number of moulded wounds/total number of 12 wounds ([3]; 50 ppm natamycin, 250 ppm propiconazole or both, Day 39, listed as propiconazole): 12
Number of moulded wounds/total number of 12 wounds ([3]; 50 ppm natamycin, 250 ppm propiconazole or both, Day 42): 12/12
Number of moulded wounds/total number of 12 wounds ([3]; 50 ppm natamycin, 250 ppm propiconazole or both, Day 42, listed as propiconazole): 12
Number of moulded wounds/total number of 12 wounds ([3]; 250 ppm natamycin, 500 ppm propiconazole or both, Day 34): 10/12
Number of moulded wounds/total number of 12 wounds ([3]; 250 ppm natamycin, 500 ppm propiconazole or both, Day 34, listed as propiconazole): 10
Number of moulded wounds/total number of 12 wounds ([3]; 250 ppm natamycin, 500 ppm propiconazole or both, Day 36): 10/12
Number of moulded wounds/total number of 12 wounds ([3]; 250 ppm natamycin, 500 ppm propiconazole or both, Day 36, listed as propiconazole): 10
Number of moulded wounds/total number of 12 wounds ([3]; 500 ppm natamycin, 150 ppm propiconazole or both, Day 26): 9/12
Number of moulded wounds/total number of 12 wounds ([3]; 500 ppm natamycin, 150 ppm propiconazole or both, Day 26, listed as propiconazole): 9
Number of moulded wounds/total number of 12 wounds ([3]; 500 ppm natamycin, 150 ppm propiconazole or both, Days 27-29): 12/12
Number of moulded wounds/total number of 12 wounds ([3]; 500 ppm natamycin, 150 ppm propiconazole or both, Days 27-29, listed as propiconazole): 12
Number of moulded wounds/total number of 12 wounds ([3]; 500 ppm natamycin, 150 ppm propiconazole or both, Days 31-32): 12/12
Number of moulded wounds/total number of 12 wounds ([3]; 500 ppm natamycin, 150 ppm propiconazole or both, Days 31-32, listed as propiconazole): 12
Number of moulded wounds/total number of 12 wounds ([3]; 500 ppm natamycin, 1000 ppm propiconazole or both, Day 39): 4/12
Number of moulded wounds/total number of 12 wounds ([3]; 500 ppm natamycin, 1000 ppm propiconazole or both, Day 39, listed as propiconazole): 4
Number of moulded wounds/total number of 12 wounds ([3]; 500 ppm natamycin, 1000 ppm propiconazole or both, Day 42): 4/12
Number of moulded wounds/total number of 12 wounds ([3]; 500 ppm natamycin, 1000 ppm propiconazole or both, Day 42, listed as propiconazole): 4
Observed antifungal activity O ([3]; 50 ppm natamycin, 250 ppm propiconazole or both, 29 days): 92%
Observed antifungal activity O ([3]; 50 ppm natamycin, 250 ppm propiconazole or both, 32 days): 90%
Observed antifungal activity O ([3]; 50 ppm natamycin, 250 ppm propiconazole or both, 34 days): 85%
Observed antifungal activity O ([3]; 50 ppm natamycin, 250 ppm propiconazole or both, 36 days): 81%
Observed antifungal activity O ([3]; 50 ppm natamycin, 250 ppm propiconazole or both, 39 days): 57%
Observed antifungal activity O ([3]; 50 ppm natamycin, 250 ppm propiconazole or both, 42 days): 47%
Observed antifungal activity O ([3]; 250 ppm natamycin, 50 ppm propiconazole or both, 23 days): 36%
Observed antifungal activity O ([3]; 250 ppm natamycin, 50 ppm propiconazole or both, 27 days): 30%
Observed antifungal activity O ([3]; 250 ppm natamycin, 50 ppm propiconazole or both, 29 days): 35%
Observed antifungal activity O ([3]; 250 ppm natamycin, 500 ppm propiconazole or both, 34 days): 74%
Observed antifungal activity O ([3]; 250 ppm natamycin, 500 ppm propiconazole or both, 36 days): 62%
Observed antifungal activity O ([3]; 250 ppm natamycin, 500 ppm propiconazole or both, 39 days): 43%
Observed antifungal activity O ([3]; 250 ppm natamycin, 500 ppm propiconazole or both, 42 days): 33%
Observed antifungal activity O ([3]; 500 ppm natamycin, 150 ppm propiconazole or both, 27 days): 57%
Observed antifungal activity O ([3]; 500 ppm natamycin, 150 ppm propiconazole or both, 28 days): 56%
Observed antifungal activity O ([3]; 500 ppm natamycin, 150 ppm propiconazole or both, 29 days): 54%
Observed antifungal activity O ([3]; 500 ppm natamycin, 150 ppm propiconazole or both, 31 days): 44%
Observed antifungal activity O ([3]; 500 ppm natamycin, 150 ppm propiconazole or both, 32 days): 33%
